Test results: patent US20140350119A1, “OPHTHALMIC COMPOSITION COMPRISING GERANYLGERANYLACETONE” (ROHTO PHARMACEUTICAL CO., LTD., priority 2012, published 2014)

Test system: ARPE-19
Assay: Protective effect for retinal pigment epithelial cells against oxidative stress by hydrogen peroxide
Assay type: cell-based, human
Conditions: all-trans form content 280 μM, 14 hours, then 750 μM hydrogen peroxide 2 hours, FIG. 4, n=3
From the text: The involvement of oxidative stress in ophthalmologic diseases has been widely reported. Such involvement has been observed in, in addition to glaucoma and cataract, retinal diseases such as retinal diseases due to diabetes, hypertension, hyperlipemia, etc., age-related macular degeneration, retinopathy of prematurity, retinal vascular occlusion, retinal light damage, etc. (Nippon Ganka Gakkai Zasshi. 112, 22-29 (2008)). In the retina, the retinal pigment epithelium exists in an environment in which reactive oxygen easily generates (Invest Opthalmol Vis Sci. 2006 July 47(7): 3164-3177.). […]
After 2 hours of incubation, the cell culture supernatant was removed, and 200 μL of PBS was added to each well and promptly removed. Then, 100 μL of an equivalent mixture of a cell viability detection reagent Cell Titer-Glo (Promega) and PBS was added to each well and the luminescence produced by the reaction with ATP in living cells was measured with a luminometer (GloMax; Promega). The cell viability was calculated from the measured luminescence by the following formula and the cytoprotective effect of GGA against oxidative stress by hydrogen peroxide was examined.
Cell viability (%)=100×[(luminescence of base- or GGA-treated group)/(luminescence of non-treated group)]

In the case of CC(=O)CC/C=C(\C)CC/C=C(\C)CC/C=C(\C)CCC=C(C)C [all-trans form, (5E,9E,13E)-6,10,14,18-tetramethyl-5,9,13,17-nonadecatetrae n-2-one], the “Cell viability compared with base-treated group” value is reported as “significantly higher cell viabilities”.
